Test results as given in patent US20030186946A1, “Suppression of cytotoxic protein conformers” (priority 2002, published 2003).
Where two headings read alike, the source gives them in different places.

Key:
human amylin [1] = target: T1, human amylin (Homo sapiens, UniProt P10997); settings: 10 μM thioflavin-T
T1 sequence (P10997 34-70 limits assumed): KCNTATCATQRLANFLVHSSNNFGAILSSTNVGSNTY
Protocol: Thioflavin-T binding fluorescent assays. The effects of various polycyclic compounds on islet amyloid formation were measured by fluorescence spectroscopy, using a SpectraMAX Gemini XS Fluorescence Spectrophotometer (Molecular Devices Corporation, Sunnyvale, Calif.). Excitation and emission maxima were set to 450 nm and 510 nm respectively using a cutoff filter at 495 nm. Thioflavin-T binds to amylin fibrils, but not to monomeric amylin (Goldsbury et al., (1999), J. Mol. Biol., 285:33-39). […] The rate of amylin fibril formation was determined by following thioflavin-T fluorescence in the presence or absence of the potential inhibitory drug. […] Background fluorescence by acridine and acridine orange in the absence of amylin was subtracted from the experimental results. The control preparation contained human amylin and thioflavin-T in the absence of drug. The rate of fluorescence enhancement under these conditions was used to compare amylin fibril formation in the absence and presence of the drug. All other experimental conditions were identical.
Tri-prolyl amylin and rat amylin with thioflavin-T were also used as additional controls.
Each data point represents the mean±s.e.m of three separate reactions.
Effect of chlorpromazine on enhancement of thioflavin-Tfluorescence by human amylin (FIG. 2). Chlorpromazine (700 μM) (π) was incubated in 10 mM tris p H 7.4, with monomeric human amylin (70 μM) in the presence of thioflavin-T (10 μM). The fluorescence of the reaction was monitored over 24 hours as described in the methods. […] Each data point represents the mean±s.e.m of three separate reactions.
Effect of selected polycylic compounds on enhancement of thioflavin-Tfluorescence by human amylin (FIG. 3). Acridine, acridine orange, neutral red and methylene blue are selected examples of fused tricyclic ring compounds. […] Compound structures are shown adjacent to the appropriate graph. […] Fluorescence was monitored over 24 h as described in the Methods. A preparation containing human amylin and thioflavin-T only (▪), was included as a comparison in the absence of drug. […] Each data point represents the mean±s.e.m of three independent experiments.

RINm5F cells = assay: Cytotoxicity assay in RINm5F cells (calcein-AM / ethidium homodimer-1 staining)
Protocol: Cell Culture and Cytotoxicity Assays. RINm5F cells were cultured in RPMI 1640 medium containing 10% fetal bovine serum, 290 μg/mL L-glutamine, 100 IU/mL penicillin and 100 μg/mL streptomycin. Cells were plated at a density of 15×1 cells per well, incubated for 48 h, rinsed with PBS and placed in fresh medium containing Congo red. Freshly prepared human amylin in Milli-Q water, was preincubated with Congo red for 30 min, then added to the cell culture medium to give a final concentration of 30 μM. Cells were treated for 22 h with human amylin in the presence or absence of 100 μM Congo red. Cell viability was determined by double-staining with calcein-AM and ethidium homodimer-1. Green fluorescence of live cells and red fluorescence marking nuclei of dead cells were simultaneously visualized using a Zeiss Axiovert S100 microscope equipped with a Zeiss filter set # 09. Photographs were taken at 400× magnification using a Zeiss AxioCam digital camera.
A. Representative fluorescence micrograph of RINm5F cells treated with 30 μM human amylin for 22 h and stained with calcein-AM and ethidium homodimer-1 to show live cells (green) and dead cells (red). […] B. A representative micrograph of RINm5F cells treated with 30 μM human amylin and 100 μM Congo red stained as above. […] The percentage of live cells was determined for cells treated for 22 h with vehicle; 30 μM human amylin; 30 μM human amylin in the presence of 100 μM Congo red; or 30 μM rat amylin. Experiments were repeated independently 10 times except for human amylin plus Congo red (A+CR) which was repeated five times. Error bars represent the s.e.m of live and dead cell counts over 6-12 fields per condition.

human amylin [2] = target: T1, human amylin; assay: Electron microscopy of human amylin fibrils; format: biochemical; parameters: Amylin is a 37-residue; C-terminally amidated peptide having a disulfide bridge between the cysteines at residues 2 and 7; purchased Bachem Calif; (Torrance, Calif.); host or cells: chemical synthesis; settings: 1200 μM compound, 60 μM human amylin, 10 mM tris pH 7.4, 24 h (FIG. 6)
Protocol: Electron Microscopy. […] Samples were removed at various time points and prepared for electron microscopy. Aliquots (8 μl) of the amylin fibril preparations were absorbed to glow-discharged carbon-coated collodion film on 200-mesh copper grids for 1 min. Grids were blotted, washed twice in droplets of deionised water and stained with 2% (w/v) uranyl acetate. Grids were examined in a Phillips Technai transmission electron microscope operated at 120 kV.
Samples were removed at various time points and prepared for electron microscopy according to the procedure described in the methods.
Electron Microscopy of human amylin fibrils in the presence and absence of quinacrine (FIG. 5). A 100 fold molar excess of quinacrine was incubated with human amylin. Samples were removed at various time points and prepared for electron microscopy according to the procedure described in the methods.
Electron Microscopy of human amylin fibrils in the presence and absence of selected polycyclic compounds (FIG. 6). […] Samples were removed and prepared for electron microscopy as described in the Methods. All experiments were performed in triplicate and the pictures above are representative of at least 6 photographs taken at each magnification.

human amylin [3] = target: T1, human amylin; assay: Radiolabelled precipitation assay of amylin fibril formation; format: biochemical; parameters: Amylin is a 37-residue; C-terminally amidated peptide having a disulfide bridge between the cysteines at residues 2 and 7; purchased Bachem Calif; (Torrance, Calif.); host or cells: chemical synthesis; settings: 200 μM Congo red, 10 μM human amylin, after 5 h
Protocol: Radiolabelled Precipitation Assays. The precipitation of radiolabelled human and rat amylin fibrils was used as an independent method to monitor assembly of amylin fibrils in the presence or absence of potential inhibitors of amylin fibril formation. […] Incubation mixtures were then centrifuged at either 16,000×g or 100,000×g, for 20 min, and the amount of [^3H]-human amylin remaining in the supernatant after centrifugation was determined (Beckman LSW 3801 β-counter, USA). Results were expressed as percentages of precipitable counts per minute, relative to total radioactivity in the supernatant.
Incorporation of [^3H]-amylin into amylin fibrils was followed for 24 hours. Human amylin fibrils were precipitated by centrifugation at either 16,000×g (FIG. 7A) or at 100,000×g (FIG. 7B). Rat amylin (10 μM) in the presence of [^3H]-rat amylin was used as a non-fibril forming control (♦) (FIG. 7A). The results are shown as the percentage of precipitable radioactive amylin, relative to total radioactivity in the supernatant at each time point. Each data point represents the mean±s.e.m of three separate reactions.
The incorporation of radioactive monomeric amylin into the human amylin fibrils as they form, can be used to measure the rate at which amylin fibrils form in the presence or absence of a potential inhibitory drug. Amylin fibrils can be separated from solution by centrifugation and the amount of radioactive amylin precipitated in the amylin fibril pellet is then used as a measure of the amount of amylin fibrils present at that time.
Thioflavin-T, although not polycyclic, is widely used in fluorescent assays to measure amylin fibril formation. Incorporation of radioactivity into the pellet of an aliquot of the reaction mixture centrifuged at 16,000×g, for 20 minutes was monitored over the time periods indicated. Rat amylin (10 μM) with [^3H]-rat amylin added was used as a non fibril forming control (∘) in each experiment. The results are shown as the percentage of precipitable radioactive amyloid, relative to total radioactivity in the supernatant at each time point. Each data point represents the mean±s.e.m of three separate experiments.

With Congo red the “enhancement of thioflavin-T fluorescence by human amylin” value (human amylin [1]; 700 μM compound, 70 μM human amylin, 10 mM tris pH 7.4, over 72 hours (FIG. 1)) was “no increase in fluorescence beyond that of the rat control preparation”, the “enhancement of thioflavin-T fluorescence by human amylin” value (human amylin [1]; 1200 μM compound (20-fold molar excess), 60 μM human amylin, over 24 h (FIG. 3)) was “no increase in thioflavin-T enhanced fluorescence” and the “protection against cytotoxic effects of human amylin” value (RINm5F cells; 30 μM human amylin, 100 μM Congo red (3-fold molar excess), 22 h) was “inhibited the cytotoxic effects of amylin”. The “intrinsic cytotoxicity of compound to RINm5F β cells” value (RINm5F cells; relative molar ratios which produced suppression of amyloid aggregation (low μM)) was “nointrinsic cytotoxic effects”, the “morphology of human amylin fibrils (electron microscopy)” value (human amylin [2]) was “still formed characteristic amylin fibrils” and the “reduction in amyloid content” value (human amylin [3]) was “approximately 3 fold”.
